# What was measured:
# [1] = target: T1, Androgen receptor (Rattus norvegicus, UniProt P15207); assay type: functional
# T1 sequence (P15207 whole entry): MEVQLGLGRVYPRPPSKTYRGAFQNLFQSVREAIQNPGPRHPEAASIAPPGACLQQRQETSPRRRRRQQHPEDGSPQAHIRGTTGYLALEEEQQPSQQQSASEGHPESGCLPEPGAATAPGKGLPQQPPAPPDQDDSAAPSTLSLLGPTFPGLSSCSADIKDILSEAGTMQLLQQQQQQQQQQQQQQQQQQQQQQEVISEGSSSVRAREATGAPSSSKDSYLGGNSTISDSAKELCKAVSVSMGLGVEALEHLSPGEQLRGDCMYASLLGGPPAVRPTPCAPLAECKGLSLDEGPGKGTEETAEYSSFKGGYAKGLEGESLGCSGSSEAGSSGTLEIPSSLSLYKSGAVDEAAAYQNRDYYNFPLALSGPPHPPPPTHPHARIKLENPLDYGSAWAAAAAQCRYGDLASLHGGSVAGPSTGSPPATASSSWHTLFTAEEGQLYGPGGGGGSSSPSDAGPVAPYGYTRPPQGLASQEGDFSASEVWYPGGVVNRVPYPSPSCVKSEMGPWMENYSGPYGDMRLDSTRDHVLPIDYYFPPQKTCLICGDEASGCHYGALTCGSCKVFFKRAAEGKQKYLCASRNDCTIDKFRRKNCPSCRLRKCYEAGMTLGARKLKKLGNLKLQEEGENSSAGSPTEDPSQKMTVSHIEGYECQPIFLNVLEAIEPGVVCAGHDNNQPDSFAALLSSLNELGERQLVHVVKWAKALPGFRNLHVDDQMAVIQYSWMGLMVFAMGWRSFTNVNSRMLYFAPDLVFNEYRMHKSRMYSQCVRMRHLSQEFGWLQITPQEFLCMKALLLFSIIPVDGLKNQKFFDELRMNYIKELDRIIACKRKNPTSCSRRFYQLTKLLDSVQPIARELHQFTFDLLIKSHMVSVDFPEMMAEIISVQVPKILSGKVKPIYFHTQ
# [2] = target: Vascular endothelial growth factor receptor 2 (Homo sapiens, UniProt P35968); assay type: functional
# [3] = target: T2, Substance-K receptor (Homo sapiens, UniProt P21452)
# T2 sequence (P21452 whole entry): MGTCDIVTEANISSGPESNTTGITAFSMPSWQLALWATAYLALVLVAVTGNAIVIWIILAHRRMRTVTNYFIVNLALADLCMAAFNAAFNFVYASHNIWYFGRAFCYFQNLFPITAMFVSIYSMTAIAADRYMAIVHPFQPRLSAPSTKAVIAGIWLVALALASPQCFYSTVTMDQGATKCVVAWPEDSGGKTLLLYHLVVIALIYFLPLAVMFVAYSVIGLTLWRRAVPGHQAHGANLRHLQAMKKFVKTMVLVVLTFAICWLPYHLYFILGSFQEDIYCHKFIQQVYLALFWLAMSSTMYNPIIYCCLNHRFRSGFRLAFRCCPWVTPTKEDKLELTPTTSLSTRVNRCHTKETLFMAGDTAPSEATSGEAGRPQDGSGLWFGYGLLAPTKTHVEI
# [4] = target: T3, Nuclear receptor subfamily 1 group I member 3 (Homo sapiens, UniProt Q14994); assay type: functional
# T3 sequence (Q14994 whole entry): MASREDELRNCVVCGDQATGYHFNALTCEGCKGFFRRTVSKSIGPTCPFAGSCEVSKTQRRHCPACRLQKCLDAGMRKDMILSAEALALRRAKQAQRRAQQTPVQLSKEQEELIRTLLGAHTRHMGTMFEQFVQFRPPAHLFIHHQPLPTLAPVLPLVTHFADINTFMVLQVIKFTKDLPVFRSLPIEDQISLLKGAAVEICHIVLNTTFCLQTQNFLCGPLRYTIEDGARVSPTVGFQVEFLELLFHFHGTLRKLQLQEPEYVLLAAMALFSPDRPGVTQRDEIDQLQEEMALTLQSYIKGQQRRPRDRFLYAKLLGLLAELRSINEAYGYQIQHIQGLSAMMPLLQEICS
# [5] = target: T4, Peroxisome proliferator-activated receptor alpha (Homo sapiens, UniProt Q07869); assay type: functional
# T4 sequence (Q07869 whole entry): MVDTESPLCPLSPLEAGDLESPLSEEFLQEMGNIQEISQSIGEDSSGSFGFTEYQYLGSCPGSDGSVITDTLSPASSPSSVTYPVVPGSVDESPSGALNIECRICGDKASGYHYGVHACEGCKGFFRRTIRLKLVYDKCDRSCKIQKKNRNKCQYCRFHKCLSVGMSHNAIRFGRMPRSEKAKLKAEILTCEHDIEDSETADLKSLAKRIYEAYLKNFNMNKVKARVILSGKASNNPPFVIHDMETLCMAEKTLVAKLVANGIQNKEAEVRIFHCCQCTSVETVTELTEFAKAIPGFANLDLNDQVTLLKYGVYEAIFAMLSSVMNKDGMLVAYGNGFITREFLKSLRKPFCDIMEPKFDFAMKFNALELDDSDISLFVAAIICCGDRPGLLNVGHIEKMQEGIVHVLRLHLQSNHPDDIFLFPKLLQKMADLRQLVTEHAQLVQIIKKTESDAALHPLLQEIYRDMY
# [6] = target: T4, Peroxisome proliferator-activated receptor alpha; assay type: functional; remark: listed apart in the source
# [7] = target: T5, Oxysterols receptor LXR-alpha (Homo sapiens, UniProt Q13133); assay type: functional
# T5 sequence (Q13133 whole entry): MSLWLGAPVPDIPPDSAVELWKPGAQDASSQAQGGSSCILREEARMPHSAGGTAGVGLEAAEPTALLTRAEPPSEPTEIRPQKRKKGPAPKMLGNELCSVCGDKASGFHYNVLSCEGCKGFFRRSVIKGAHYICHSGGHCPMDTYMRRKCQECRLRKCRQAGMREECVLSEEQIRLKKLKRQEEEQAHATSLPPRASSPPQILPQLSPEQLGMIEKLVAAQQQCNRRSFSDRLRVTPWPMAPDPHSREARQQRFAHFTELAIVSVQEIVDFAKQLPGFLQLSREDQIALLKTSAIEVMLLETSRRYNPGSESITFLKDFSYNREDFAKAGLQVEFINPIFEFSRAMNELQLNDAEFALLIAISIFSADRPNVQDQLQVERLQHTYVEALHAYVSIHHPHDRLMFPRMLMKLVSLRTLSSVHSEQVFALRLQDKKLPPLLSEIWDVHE
# [8] = target: T1, Androgen receptor
# [9] = target: Hydroxycarboxylic acid receptor 2 (Homo sapiens, UniProt Q8TDS4)
# [10] = target: 5-hydroxytryptamine receptor 5A (Homo sapiens, UniProt P47898)
# Further: assay procedure not described here.
# Chain of 5-hydroxytryptamine receptor 5A (P47898 whole entry): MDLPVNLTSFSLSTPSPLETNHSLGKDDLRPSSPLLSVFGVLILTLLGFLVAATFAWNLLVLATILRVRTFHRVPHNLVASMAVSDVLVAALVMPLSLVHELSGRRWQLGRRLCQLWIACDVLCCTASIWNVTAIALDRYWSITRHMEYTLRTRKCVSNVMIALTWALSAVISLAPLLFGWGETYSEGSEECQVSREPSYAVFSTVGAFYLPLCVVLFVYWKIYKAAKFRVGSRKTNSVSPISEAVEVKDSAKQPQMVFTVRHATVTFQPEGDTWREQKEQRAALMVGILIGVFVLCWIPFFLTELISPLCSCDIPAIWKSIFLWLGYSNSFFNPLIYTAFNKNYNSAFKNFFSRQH
# Chain of Hydroxycarboxylic acid receptor 2 (Q8TDS4 whole entry): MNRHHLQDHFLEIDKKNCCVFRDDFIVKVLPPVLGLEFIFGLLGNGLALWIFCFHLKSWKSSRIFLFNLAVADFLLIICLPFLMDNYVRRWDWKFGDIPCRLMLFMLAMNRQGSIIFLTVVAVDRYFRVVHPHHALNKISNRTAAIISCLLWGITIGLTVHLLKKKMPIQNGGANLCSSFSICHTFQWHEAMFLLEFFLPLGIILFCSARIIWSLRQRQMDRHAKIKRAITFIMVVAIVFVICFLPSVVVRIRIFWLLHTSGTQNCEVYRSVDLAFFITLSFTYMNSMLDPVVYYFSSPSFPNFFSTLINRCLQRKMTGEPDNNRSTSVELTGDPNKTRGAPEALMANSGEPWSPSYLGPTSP
# Chain of Vascular endothelial growth factor receptor 2 (P35968 whole entry): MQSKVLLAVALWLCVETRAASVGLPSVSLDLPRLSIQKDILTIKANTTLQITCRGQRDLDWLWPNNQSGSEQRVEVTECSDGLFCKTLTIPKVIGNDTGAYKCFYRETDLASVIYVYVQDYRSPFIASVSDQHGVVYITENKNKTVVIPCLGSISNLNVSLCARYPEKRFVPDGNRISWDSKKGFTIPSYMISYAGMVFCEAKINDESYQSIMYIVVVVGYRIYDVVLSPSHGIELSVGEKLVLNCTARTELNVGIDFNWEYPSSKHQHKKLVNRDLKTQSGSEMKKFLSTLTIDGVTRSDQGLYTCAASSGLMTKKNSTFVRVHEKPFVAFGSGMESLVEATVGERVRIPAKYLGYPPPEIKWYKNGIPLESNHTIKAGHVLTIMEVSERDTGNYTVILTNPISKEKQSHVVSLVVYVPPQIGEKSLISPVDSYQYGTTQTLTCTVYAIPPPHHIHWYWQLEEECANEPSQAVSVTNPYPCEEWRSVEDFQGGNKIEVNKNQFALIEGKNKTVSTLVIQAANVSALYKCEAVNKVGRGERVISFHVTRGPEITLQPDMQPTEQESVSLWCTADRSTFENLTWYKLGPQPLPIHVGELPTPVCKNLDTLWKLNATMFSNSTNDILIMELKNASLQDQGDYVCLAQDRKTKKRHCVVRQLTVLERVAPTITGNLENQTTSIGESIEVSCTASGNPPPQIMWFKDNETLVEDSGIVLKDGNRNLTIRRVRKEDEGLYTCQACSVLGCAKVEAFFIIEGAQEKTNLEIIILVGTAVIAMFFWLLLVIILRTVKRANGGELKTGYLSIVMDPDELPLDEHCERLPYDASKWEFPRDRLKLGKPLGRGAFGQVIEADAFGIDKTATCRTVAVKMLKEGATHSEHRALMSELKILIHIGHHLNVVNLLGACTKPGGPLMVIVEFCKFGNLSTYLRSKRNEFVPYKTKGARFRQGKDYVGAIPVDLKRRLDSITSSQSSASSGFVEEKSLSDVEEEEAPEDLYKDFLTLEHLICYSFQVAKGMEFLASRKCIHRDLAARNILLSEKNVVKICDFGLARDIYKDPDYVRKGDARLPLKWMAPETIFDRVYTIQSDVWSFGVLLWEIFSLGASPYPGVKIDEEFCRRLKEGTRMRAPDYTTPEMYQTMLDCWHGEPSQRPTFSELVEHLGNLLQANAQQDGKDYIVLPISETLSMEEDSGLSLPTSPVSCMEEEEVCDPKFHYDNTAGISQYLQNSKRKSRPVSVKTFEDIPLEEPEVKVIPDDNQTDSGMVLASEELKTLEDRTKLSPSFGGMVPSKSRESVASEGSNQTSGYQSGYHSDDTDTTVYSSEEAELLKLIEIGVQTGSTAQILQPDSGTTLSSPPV
smiles,measurement,setting,value
C[C@@H](NCCCc1cccc(C(F)(F)F)c1)c1cccc2ccccc12,AC50,[1],> 30 µM
COc1ccc(CC2c3cc(OC)c(OC)cc3CC[N+]2(C)CCC(=O)OCCCCCOC(=O)CC[N+]2(C)CCc3cc(OC)c(OC)cc3C2Cc2ccc(OC)c(OC)c2)cc1OC (stereo not drawn),AC50,[1],> 30 µM
CCN1CCN(Cc2ccc(Nc3ncc(F)c(-c4cc(F)c5nc(C)n(C(C)C)c5c4)n3)nc2)CC1 [ABEMACICLIB],AC50,[2],14 µM
CCCN(CCC)C(=O)Cc1c(-c2ccc(Cl)cc2)nc2ccc(Cl)cn12 [ALPIDEM],AC50,[3],> 10 µM
COc1ccccc1Oc1c(NS(=O)(=O)c2ccc(C(C)(C)C)cc2)nc(-c2ncccn2)nc1OCCO [BOSENTAN],AC50,[4],2.1 µM
same,AC50,[5],> 30 µM
same,AC50,[6],> 30 µM
CC(C(=O)O)c1ccc2c(c1)[nH]c1ccc(Cl)cc12 (stereo not drawn) [CARPROFEN],AC50,[7],> 30 µM
same,AC50,[4],> 30 µM
same,AC50,[6],> 30 µM
COc1ccccc1OCCNCC(O)COc1cccc2[nH]c3ccccc3c12 (stereo not drawn) [CARVEDILOL],AC50,[1],> 30 µM
same,AC50,[8],> 30 µM
C[C@H]1c2cccc(O)c2C(=O)C2=C(O)[C@]3(O)C(=O)C(C(N)=O)=C(O)[C@@H](N(C)C)[C@@H]3[C@@H](O)[C@@H]21 [DOXYCYCLINE],AC50,[9],> 10 µM
CC(C)Cc1ccc(C(C)C(=O)O)cc1 (stereo not drawn) [IBUPROFEN],AC50,[5],> 30 µM
same,AC50,[6],> 30 µM
CC(=O)O[C@]1(C(C)=O)CC[C@H]2[C@@H]3C=C(C)C4=CC(=O)CC[C@@H]4[C@H]3CC[C@@]21C [NOMEGESTROL ACETATE],AC50,[1],> 30 µM
CO[C@H]1/C=C/O[C@@]2(C)Oc3c(C)c(O)c4c(O)c(c(/C=N/N5CCN(C)CC5)c(O)c4c3C2=O)NC(=O)/C(C)=C\C=C\[C@H](C)[C@H](O)[C@@H](C)[C@@H](O)[C@@H](C)[C@H](OC(C)=O)[C@@H]1C [RIFAMPIN],AC50,[4],> 30 µM
same,AC50,[6],> 30 µM
CN(C)CCc1c[nH]c2ccc(Cn3cncn3)cc12 [RIZATRIPTAN],AC50,[8],> 30 µM
N[C@@H](CC(=O)N1CCn2c(nnc2C(F)(F)F)C1)Cc1cc(F)c(F)cc1F [SITAGLIPTIN],AC50,[10],> 10 µM
same,AC50,[3],> 10 µM
Nc1ccc(S(=O)(=O)Nc2nccs2)cc1 [SULFATHIAZOLE],AC50,[9],> 10 µM
CCN(CC)CCNC(=O)c1c(C)[nH]c(/C=C2\C(=O)Nc3ccc(F)cc32)c1C [SUNITINIB],AC50,[10],10 µM
same,AC50,[7],> 10 µM
same,AC50,[4],> 30 µM
same,AC50,[6],> 30 µM
C=CC[C@@H]1/C=C(\C)C[C@H](C)C[C@H](OC)[C@H]2O[C@@](O)(C(=O)C(=O)N3CCCC[C@H]3C(=O)O[C@H](/C(C)=C/[C@@H]3CC[C@@H](O)[C@H](OC)C3)[C@H](C)[C@@H](O)CC1=O)[C@H](C)C[C@@H]2OC [TACROLIMUS ANHYDROUS],AC50,[8],> 30 µM
same,AC50,[2],> 30 µM
C[C@H](CCC(=O)O)[C@H]1CC[C@H]2[C@@H]3[C@@H](O)C[C@@H]4C[C@H](O)CC[C@]4(C)[C@H]3CC[C@]12C [URSODIOL],AC50,[2],> 10 µM
Cc1onc(-c2ccccc2)c1-c1ccc(S(N)(=O)=O)cc1 [VALDECOXIB],AC50,[9],> 10 µM
same,AC50,[10],> 10 µM
same,AC50,[3],> 10 µM
CCCC(CCC)C(=O)O [VALPROIC ACID],AC50,[3],> 10 µM

# Source: ChEMBL document CHEMBL5291721, “A preclinical secondary pharmacology resource illuminates target-adverse drug reaction associations of marketed drugs” (Nat Commun, 2023)
